Like-named read-outs stand apart in the source and are kept apart here. *1 amine or outer side, *2 acyl side, *3 side chain or, on linkers, in order; H or OH if unused. Where a SMILES comes first, the peptide text is derived from it. Side-chain parts run from the residue outwards. [ ]: non-standard residue; d: D form. The star is where a group is joined. Isobutyryl(2-(3-CN-5-F-Ph)) = CC(C)(C(=O)*)c1cc(F)cc(C#N)c1; C20 diacid = O=C(O)CCCCCCCCCCCCCCCCCCC(=O)*; γGlu = O=C(O)[C@H](CCC(=O)[*:2])N[*:1]; X60 = O=C(C1(c2cccnc2)CCCC1)*; X83 = Cc1ccn(C(C)(C)C(=O)*)n1; X24 = O=C(C1(c2cccnc2)CCC1)*; X66 = NC(=O)C1(C(=O)*)CCC1; AEEA = NCCOCCOCC(=O)O; Aib = CC(C)(N)C(=O)O; CO = O=C([*:1])[*:2]; X67 = Cc1cccc(N*)c1; GABA = NCCCC(=O)O; βAla = NCCC(=O)O
Key:
[1] = biological target: GLP-1 receptor (Homo sapiens, UniProt P43220); assay: HitHunter cAMP assay, GLP-1 receptor; format: cell-based; details: read-out: Emax GLP-1R
GLP-1 receptor, sequence (P43220 24-463): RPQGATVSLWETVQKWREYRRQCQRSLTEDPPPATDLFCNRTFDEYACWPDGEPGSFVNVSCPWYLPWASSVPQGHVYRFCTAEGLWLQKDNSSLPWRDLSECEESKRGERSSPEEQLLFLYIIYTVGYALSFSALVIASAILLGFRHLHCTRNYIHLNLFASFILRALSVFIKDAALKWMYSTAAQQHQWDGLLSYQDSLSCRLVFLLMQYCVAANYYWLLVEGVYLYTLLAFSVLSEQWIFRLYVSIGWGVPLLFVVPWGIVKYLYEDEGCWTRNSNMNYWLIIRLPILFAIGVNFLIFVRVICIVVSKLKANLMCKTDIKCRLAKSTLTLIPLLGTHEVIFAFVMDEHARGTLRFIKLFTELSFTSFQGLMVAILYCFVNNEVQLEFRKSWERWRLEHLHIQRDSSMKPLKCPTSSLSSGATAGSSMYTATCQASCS

[2] = biological target: T1, GIP receptor (Homo sapiens, UniProt P48546); assay: HitHunter cAMP assay, GIP receptor; format: cell-based; details: read-out: Emax GIP-1R
T1 sequence (P48546 22-466): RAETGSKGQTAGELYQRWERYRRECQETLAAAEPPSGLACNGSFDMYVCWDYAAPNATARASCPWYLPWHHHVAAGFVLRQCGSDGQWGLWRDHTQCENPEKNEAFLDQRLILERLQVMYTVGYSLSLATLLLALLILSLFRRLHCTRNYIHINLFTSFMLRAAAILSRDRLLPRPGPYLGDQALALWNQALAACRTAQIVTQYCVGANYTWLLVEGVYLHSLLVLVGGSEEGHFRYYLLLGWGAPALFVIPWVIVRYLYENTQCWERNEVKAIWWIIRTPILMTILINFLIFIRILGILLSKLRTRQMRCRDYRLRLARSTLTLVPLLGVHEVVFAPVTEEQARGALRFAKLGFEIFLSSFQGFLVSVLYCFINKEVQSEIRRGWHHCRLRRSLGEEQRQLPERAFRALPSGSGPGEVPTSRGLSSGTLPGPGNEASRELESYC

[3] = CHO cells, cAMP, normalized to maximum signal from GLP-1 (high) and DMSO (low)
[4] = CHO cells, cAMP, normalized to maximum signal from GIP (high) and DMSO (low)

Row | SMILES | Emax [1, 3] [%] | Emax [2, 4] [%] | Emax ([1]; CHO) [%] | Emax ([2]; CHO) [%]
1 | CC[C@H](C)[C@H](NC(=O)[C@H](CC(C)C)NC(=O)[C@H](Cc1c[nH]c2ccccc12)NC(=O)[C@H](CCC(N)=O)NC(=O)[C@@H](NC(=O)[C@H](Cc1ccccc1)NC(=O)[C@H](C)NC(=O)[C@H](CCCCNC(=O)COCCOCCNC(=O)COCCOCCNC(=O)CC[C@H](NC(=O)CCCCCCCCCCCCCCCCCCC(=O)O)C(=O)O)NC(=O)[C@H](CCC(N)=O)NC(=O)[C@H](C)NC(=O)[C@@H](NC(=O)[C@H](CCCCN)NC(=O)[C@H](CC(=O)O)NC(=O)[C@H](CC(C)C)NC(=O)C(C)(C)NC(=O)[C@@H](NC(=O)[C@H](CO)NC(=O)[C@H](Cc1ccc(O)cc1)NC(=O)[C@H](CC(=O)O)NC(=O)[C@H](CO)NC(=O)[C@@H](NC(=O)[C@H](Cc1ccccc1)NC(=O)[C@@H](NC(=O)CNC(=O)[C@H](CCC(=O)O)NC(=O)CCNC(=O)C(C)(C)n1ccc(C)n1)[C@@H](C)O)[C@@H](C)O)[C@@H](C)CC)[C@@H](C)CC)C(C)C)C(=O)N[C@@H](C)C(=O)NCC(=O)NCC(=O)N1CCC[C@H]1C(=O)N[C@@H](CO)C(=O)N[C@@H](CO)C(=O)NCC(=O)N[C@@H](C)C(=O)N1CCC[C@H]1C(=O)N1CCC[C@H]1C(=O)N1CCC[C@H]1C(=O)N[C@@H](CO)C(N)=O [Compound 253] ({X83-βAla}-EGTFTSDYSI[Aib]LDKIAQK([AEEA-AEEA-γGlu-C20 diacid])AFVQWLIAGGPSSGAPPPS-NH2; C-terminus assumed) | 94 | 105 | – | –
2 | CC[C@H](C)[C@H](NC(=O)[C@H](CC(C)C)NC(=O)[C@H](Cc1c[nH]c2ccccc12)NC(=O)[C@H](CCC(N)=O)NC(=O)[C@@H](NC(=O)[C@H](Cc1ccccc1)NC(=O)[C@H](C)NC(=O)[C@H](CCCCNC(=O)COCCOCCNC(=O)COCCOCCNC(=O)CC[C@H](NC(=O)CCCCCCCCCCCCCCCCCCC(=O)O)C(=O)O)NC(=O)[C@H](CCC(N)=O)NC(=O)[C@H](C)NC(=O)[C@@H](NC(=O)[C@H](CCCCN)NC(=O)[C@H](CC(=O)O)NC(=O)[C@H](CC(C)C)NC(=O)C(C)(C)NC(=O)[C@@H](NC(=O)[C@H](CO)NC(=O)[C@H](Cc1ccc(O)cc1)NC(=O)[C@H](CC(=O)O)NC(=O)[C@H](CO)NC(=O)[C@@H](NC(=O)[C@H](Cc1ccccc1)NC(=O)[C@@H](NC(=O)CNC(=O)[C@H](CCC(=O)O)NC(=O)CCNC(=O)C(C)(C)c1cc(F)cc(C#N)c1)[C@@H](C)O)[C@@H](C)O)[C@@H](C)CC)[C@@H](C)CC)C(C)C)C(=O)N[C@@H](C)C(=O)NCC(=O)NCC(=O)N1CCC[C@H]1C(=O)N[C@@H](CO)C(=O)N[C@@H](CO)C(=O)NCC(=O)N[C@@H](C)C(=O)N1CCC[C@H]1C(=O)N1CCC[C@H]1C(=O)N1CCC[C@H]1C(=O)N[C@@H](CO)C(N)=O [Compound 254] ({Isobutyryl(2-(3-CN-5-F-Ph))-βAla}-EGTFTSDYSI[Aib]LDKIAQK([AEEA-AEEA-γGlu-C20 diacid])AFVQWLIAGGPSSGAPPPS-NH2; C-terminus assumed) | 93 | 102 | – | –
3 | CC[C@H](C)[C@H](NC(=O)[C@H](CC(C)C)NC(=O)[C@H](Cc1c[nH]c2ccccc12)NC(=O)[C@H](CCC(N)=O)NC(=O)[C@@H](NC(=O)[C@H](Cc1ccccc1)NC(=O)[C@H](C)NC(=O)[C@H](CCCCNC(=O)COCCOCCNC(=O)COCCOCCNC(=O)CC[C@H](NC(=O)CCCCCCCCCCCCCCCCCCC(=O)O)C(=O)O)NC(=O)[C@H](CCC(N)=O)NC(=O)[C@H](C)NC(=O)[C@@H](NC(=O)[C@H](CCCCN)NC(=O)[C@H](CC(=O)O)NC(=O)[C@H](CC(C)C)NC(=O)C(C)(C)NC(=O)[C@@H](NC(=O)[C@H](CO)NC(=O)[C@H](Cc1ccc(O)cc1)NC(=O)[C@H](CC(=O)O)NC(=O)[C@H](CO)NC(=O)[C@@H](NC(=O)[C@H](Cc1ccccc1)NC(=O)[C@@H](NC(=O)CNC(=O)[C@H](CCC(=O)O)NC(=O)CCNC(=O)C1(c2cccnc2)CCC1)[C@@H](C)O)[C@@H](C)O)[C@@H](C)CC)[C@@H](C)CC)C(C)C)C(=O)N[C@@H](C)C(=O)NCC(=O)NCC(=O)N1CCC[C@H]1C(=O)N[C@@H](CO)C(=O)N[C@@H](CO)C(=O)NCC(=O)N[C@@H](C)C(=O)N1CCC[C@H]1C(=O)N1CCC[C@H]1C(=O)N1CCC[C@H]1C(=O)N[C@@H](CO)C(N)=O [Compound 255] ({X24-βAla}-EGTFTSDYSI[Aib]LDKIAQK([AEEA-AEEA-γGlu-C20 diacid])AFVQWLIAGGPSSGAPPPS-NH2; C-terminus assumed) | 90 | 99 | – | –
4 | CC[C@H](C)[C@H](NC(=O)[C@H](CC(C)C)NC(=O)[C@H](Cc1c[nH]c2ccccc12)NC(=O)[C@H](CCC(N)=O)NC(=O)[C@@H](NC(=O)[C@H](Cc1ccccc1)NC(=O)[C@H](C)NC(=O)[C@H](CCCCNC(=O)COCCOCCNC(=O)COCCOCCNC(=O)CC[C@H](NC(=O)CCCCCCCCCCCCCCCCCCC(=O)O)C(=O)O)NC(=O)[C@H](CCC(N)=O)NC(=O)[C@H](C)NC(=O)[C@@H](NC(=O)[C@H](CCCCN)NC(=O)[C@H](CC(=O)O)NC(=O)[C@H](CC(C)C)NC(=O)C(C)(C)NC(=O)[C@@H](NC(=O)[C@H](CO)NC(=O)[C@H](Cc1ccc(O)cc1)NC(=O)[C@H](CC(=O)O)NC(=O)[C@H](CO)NC(=O)[C@@H](NC(=O)[C@H](Cc1ccccc1)NC(=O)[C@@H](NC(=O)CNC(=O)[C@H](CCC(=O)O)NC(=O)CCNC(=O)C1(c2cccnc2)CCCC1)[C@@H](C)O)[C@@H](C)O)[C@@H](C)CC)[C@@H](C)CC)C(C)C)C(=O)N[C@@H](C)C(=O)NCC(=O)NCC(=O)N1CCC[C@H]1C(=O)N[C@@H](CO)C(=O)N[C@@H](CO)C(=O)NCC(=O)N[C@@H](C)C(=O)N1CCC[C@H]1C(=O)N1CCC[C@H]1C(=O)N1CCC[C@H]1C(=O)N[C@@H](CO)C(N)=O [Compound 256] ({X60-βAla}-EGTFTSDYSI[Aib]LDKIAQK([AEEA-AEEA-γGlu-C20 diacid])AFVQWLIAGGPSSGAPPPS-NH2; C-terminus assumed) | 98 | 104 | – | –
5 | CC[C@H](C)[C@H](NC(=O)[C@H](CC(C)C)NC(=O)[C@H](Cc1c[nH]c2ccccc12)NC(=O)[C@H](CCC(N)=O)NC(=O)[C@@H](NC(=O)[C@H](Cc1ccccc1)NC(=O)[C@H](C)NC(=O)[C@H](CCCCNC(=O)COCCOCCNC(=O)COCCOCCNC(=O)CC[C@H](NC(=O)CCCCCCCCCCCCCCCCCCC(=O)O)C(=O)O)NC(=O)[C@H](CCC(N)=O)NC(=O)[C@H](C)NC(=O)[C@@H](NC(=O)[C@H](CCCCN)NC(=O)[C@H](CC(=O)O)NC(=O)[C@H](CC(C)C)NC(=O)C(C)(C)NC(=O)[C@@H](NC(=O)[C@H](CO)NC(=O)[C@H](Cc1ccc(O)cc1)NC(=O)[C@H](CC(=O)O)NC(=O)[C@H](CO)NC(=O)[C@@H](NC(=O)[C@H](Cc1ccccc1)NC(=O)[C@@H](NC(=O)CNC(=O)[C@H](CCC(=O)O)NC(=O)CCNC(=O)C1(C(N)=O)CCC1)[C@@H](C)O)[C@@H](C)O)[C@@H](C)CC)[C@@H](C)CC)C(C)C)C(=O)N[C@@H](C)C(=O)NCC(=O)NCC(=O)N1CCC[C@H]1C(=O)N[C@@H](CO)C(=O)N[C@@H](CO)C(=O)NCC(=O)N[C@@H](C)C(=O)N1CCC[C@H]1C(=O)N1CCC[C@H]1C(=O)N1CCC[C@H]1C(=O)N[C@@H](CO)C(N)=O [Compound 257] ({X66-βAla}-EGTFTSDYSI[Aib]LDKIAQK([AEEA-AEEA-γGlu-C20 diacid])AFVQWLIAGGPSSGAPPPS-NH2; C-terminus assumed) | – | – | 89 | 92
6 | CC[C@H](C)[C@H](NC(=O)[C@H](CC(C)C)NC(=O)[C@H](Cc1c[nH]c2ccccc12)NC(=O)[C@H](CCC(N)=O)NC(=O)[C@@H](NC(=O)[C@H](Cc1ccccc1)NC(=O)[C@H](C)NC(=O)[C@H](CCCCNC(=O)COCCOCCNC(=O)COCCOCCNC(=O)CC[C@H](NC(=O)CCCCCCCCCCCCCCCCCCC(=O)O)C(=O)O)NC(=O)[C@H](CCC(N)=O)NC(=O)[C@H](C)NC(=O)[C@@H](NC(=O)[C@H](CCCCN)NC(=O)[C@H](CC(=O)O)NC(=O)[C@H](CC(C)C)NC(=O)C(C)(C)NC(=O)[C@@H](NC(=O)[C@H](CO)NC(=O)[C@H](Cc1ccc(O)cc1)NC(=O)[C@H](CC(=O)O)NC(=O)[C@H](CO)NC(=O)[C@@H](NC(=O)[C@H](Cc1ccccc1)NC(=O)[C@@H](NC(=O)CNC(=O)[C@H](CCC(=O)O)NC(=O)CCCNC(=O)CNC(=O)Nc1cccc(C)c1)[C@@H](C)O)[C@@H](C)O)[C@@H](C)CC)[C@@H](C)CC)C(C)C)C(=O)N[C@@H](C)C(=O)NCC(=O)NCC(=O)N1CCC[C@H]1C(=O)N[C@@H](CO)C(=O)N[C@@H](CO)C(=O)NCC(=O)N[C@@H](C)C(=O)N1CCC[C@H]1C(=O)N1CCC[C@H]1C(=O)N1CCC[C@H]1C(=O)N[C@@H](CO)C(N)=O [Compound 258] ({X67-CO}-G[GABA]EGTFTSDYSI[Aib]LDKIAQK([AEEA-AEEA-γGlu-C20 diacid])AFVQWLIAGGPSSGAPPPS-NH2; C-terminus assumed) | – | – | 100 | 101
